The record followed here is PMC6148290, “Endogenous metabolites of vitamin E limit inflammation by targeting 5-lipoxygenase” (Nature Communications, 2018).

A short description of data set [1]: LCM quantitation in plasma of healthy volunteers (UPLC-MS/MS). Particulars: endogenous; ten healthy volunteers. On the set-up: species or system human. The method, then: The diversity of LCMs in vivo is poorly investigated and limited to the analysis of plasma[27] and liver. To quantify vitamin E metabolites in plasma and tissues, we developed a sensitive ultraperformance liquid chromatography ESI tandem mass spectrometry (UPLC-MS/MS)-based quantitation method. […] The detection response of α-T-13′-COOH (4a) was linear between 1 and 250 nM (Fig. 2a), with lower limits of detection between 0.5 and 4 nM for ω-carboxylates and 4 and 250 nM for ω-alcohols (Supplementary Table 3).
Human PMNL, monocytes, PBMC, and platelets were freshly isolated from leukocyte concentrates. The protocols for experiments with human blood and blood cells were approved by the ethical commission of the Friedrich-Schiller-University Jena. […]
LCMs were separated on an Acquity UPLC BEH C18 column (1.7 µm, 2.1 × 50 mm, Waters) at a flow rate of 0.8 ml/min at 45 °C: 0 to 4.5 min, gradient from 50% mobile phase A (acetonitrile/water, 10/90, 0.07% formic acid)/50% mobile phase B (acetonitrile, 0.07% formic acid) to 100% B; 4.5 to 5.5 min, isocratic at 100% B. Multiple reaction monitoring was used to detect LCMs in the negative ion mode. […] Collision energies and lower limits of quantitation are listed in Supplementary Table 3.

Data set [2] relates to 15-LO. Description: 15-LO product formation in A23187/AA-activated PMNL. Format: cell-based, human. Particulars: at 3 µM; mean ± s.e.m., n = 3; n.i. no inhibition.
The target of data set [3] is T1, COX-2 (Homo sapiens, UniProt P35354).
T1 sequence (P35354 18-604): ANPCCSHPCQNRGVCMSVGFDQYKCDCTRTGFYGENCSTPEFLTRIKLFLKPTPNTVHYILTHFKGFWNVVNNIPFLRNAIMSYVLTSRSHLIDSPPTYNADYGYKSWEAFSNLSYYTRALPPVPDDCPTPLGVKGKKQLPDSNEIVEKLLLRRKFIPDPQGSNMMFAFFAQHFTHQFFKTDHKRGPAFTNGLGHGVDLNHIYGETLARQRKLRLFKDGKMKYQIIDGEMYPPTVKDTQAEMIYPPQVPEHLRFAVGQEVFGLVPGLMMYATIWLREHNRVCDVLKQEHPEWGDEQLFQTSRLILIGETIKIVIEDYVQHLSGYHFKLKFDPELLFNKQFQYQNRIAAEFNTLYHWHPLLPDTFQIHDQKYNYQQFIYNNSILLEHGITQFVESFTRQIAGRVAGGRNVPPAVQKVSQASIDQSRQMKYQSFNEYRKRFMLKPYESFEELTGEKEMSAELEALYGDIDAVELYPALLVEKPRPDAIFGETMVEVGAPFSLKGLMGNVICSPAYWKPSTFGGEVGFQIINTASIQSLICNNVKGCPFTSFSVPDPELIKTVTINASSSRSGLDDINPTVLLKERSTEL
Description: Activity of isolated COX-2. Type of data set: biochemical. On the set-up: purchased Cayman Chemicals. To be noted: up to 10 µM. As to the method: Purified bovine COX-1 (Cayman Chemicals; 50 units) or human recombinant COX-2 (Cayman Chemicals; 20 units) in 100 mM Tris buffer pH 8, 5 mM glutathione, 5 µM hemoglobin, and 100 µM EDTA were pre-incubated with LCMs for 5 min at 4 °C followed by 1 min at 37 °C. Formation of COX-derived 12(S)-hydroxy-5-cis-8,10-trans-heptadecatrienoic acid (12-HHT) was initiated by addition of AA (COX-1: 5 μM; COX-2: 2 μM).

The test system of data set [4] is OVA-sensitized mice. The data set is described as follows: Airway hyper-reactivity in OVA-sensitized mice. Type of data set: in vivo, mouse. Particulars: 10 mg/kg i.p. at days 0 and 7; day 21. The method, then: BALB/c mice were sensitized to OVA, and bronchial reactivity and pulmonary LTC4 levels were measured. On days 0 and 7, α-T-13′-COOH (4a; 10 mg/kg, i.p.) or vehicle (4% DMSO in saline; 0.5 ml) were administered 30 min before injection of OVA (100 µg; Sigma Aldrich) which was adsorbed to aluminum hydroxide gel (3.3 mg; Sigma Aldrich). Mice were sacrificed on day 21, and bronchi were collected. Bronchial rings of 1–2 mm length were cut and placed in organ baths mounted to isometric force transducers (Type 7006, AD Instruments, Ugo Basile, Comerio, Italy) and connected to a Powerlab 800 (AD Instruments). Rings were initially stretched until a resting tension of 0.5 g was reached and allowed to equilibrate for at least 30 min. In each experiment, bronchial rings were challenged with carbachol (10^−6 M) until the response was reproducible. Bronchial reactivity was then assessed from a cumulative concentration–response curve to carbachol (1 × 10^−8 − 3 × 10^−5 M). To determine pulmonary LTC4 levels, lungs were isolated and homogenized in PBS pH 7.4 (100 mg tissue/ml) prior to detection of LTC4 by enzyme immunoassay (Cayman Chemicals).

Structures are written as SMILES.

For the molecule `Cc1c(C)c2c(c(C)c1O)CC[C@@](C)(CCCC(C)CCCC(C)CCCC(C)C(=O)O)O2` (stereo partly drawn) [4a, 13-((2R)-6-hydroxy-2,5,7,8-tetramethylchroman-2-yl)-2,6,10-trimethyltridecanoic acid], the “α-T-13′-COOH (4a) concentration in human plasma” value in data set [1] fell in the range of 8 to 49 nM. The “15-LO product formation/PMNL, residual activity” value in data set [2] was 52.6 ± 20.3 % of control. Besides, the “inhibition of human recombinant COX-2” value in data set [3] is recorded as “not inhibited”. Moreover, in data set [4], the “OVA-induced bronchial hyper-reactivity to carbachol” value is reported as “significantly inhibited” and the “pulmonary LTC4 levels” value is “lowered pulmonary LTC4 to basal levels”.
